Results taken from patent US9233954B2, “Organic amine salts of Azilsartan, preparation method and use thereof” (Jiangsu Hansoh Pharmaceutical Co., Ltd., priority 2011, dated 2016).
Where a name gives a salt, the structure may show the parent alone. Read-outs that look alike come from different tables or passages of the source.

How the values were obtained:
Beagle dog = format: in vivo; conditions: for Clinical observations: Beagle dog, intragastric
Description: Acute Toxicity Test Research for Beagle Dog
Object: Approximate lethal dose method was introduced in the test to observe the acute toxicity response of the animals by intragastric administration of example 2 or Azilsartan medoxomil potassium salt to Beagle dogs to study the toxicity situation of example 2 after administration and compare the toxicity of example 2 and Azilsartan medoxomil potassium salt, which can provide reference confirmation for the evaluation of toxicity of example 2.
Method (approximate lethal dose method): 6 Beagle dogs were used, 3 for each of example 2 group and Azilsartan medoxomil potassium salt group. The administration dosage was 0.09, 0.13, 0.19, 0.28, 0.42, 0.63, 0.95, 1.42, 2.13, 3.20 g·kg^−1 respectively, wherein 3.20 g·kg^−1 was the maximum administration dosage (corresponding to 1081 times the given dosage for the clinical patient). The blood was collected before administration and on days 2, 7, and 14 after administration to test the corresponding biochemical indicators. Electrocardiogram, body weight, and body temperature were determined before administration and on days 7 and 14 after administration.

Hygroscopicity test = format: physicochemical; conditions: 25° C.±1° C., RH 80%±2%, 24 h
Method: 1. A dried glass weighing bottle (Outer diameter […]) with a plug was put into an artificial climate box under the temperature of 25° C.±1° C. and relative humidity (RH) of 80%±2% the day before and then weighed precisely (m1).
2. The testing sample was weighed precisely (m2) and lain into the weighing bottle. The thickness of the test sample was about 1 mm.
3. The uncovered weighing bottle and its plug were placed under the above constant temperature and humidity conditions for 24 h.
4. The weighing bottle was covered and weighed precisely (m3).
Calculation formula: Percent of weight increase=(m3−m2)/(m2−m1)*100%
5. Definition of the weight increase of the hygroscopicity
Deliquescence: absorbing enough water to form liquid.
High hygroscopicity: the weight increase of the hygroscopicity is no less than 15%
Having hygroscopicity: the weight increase of the hygroscopicity is between 15% and 2%
Slight hygroscopicity: the weight increase of the hygroscopicity is between 2% and 0.2%
No or almost no hygroscopicity: the weight increase of the hygroscopicity is less than 0.2%

Solubility test = conditions: conclusion of the solubility test
Method: Moreover, “1:40” refers to 1 g of sample was dissolved in 40 ml of methanol at room temperature, the same as “1:80”; “1:120” refers to 1 g of sample was dissolved in 40 ml of ethanol at room temperature, the same as “1:200”.

[1] = tested on: blood pressure of SHR rats; assay: Antihypertensive effect test for spontaneously hypertensive (SHR) rats; format: in vivo; conditions: 10 mg/kg
Method: Antihypertensive Effect Test For Spontaneously Hypertensive (SHR) Rats
38 of 25 week old SHR male rats were randomly divided into 4 groups according to the initial blood pressure, with 6 for the control group (solvent) and 8 for other groups. 10 mg/kg of example 2 compound (Choline Azilsartan), example 4 compound (Azilsartan ethanolamine salts) and control (Azilsartan medoxomil potassium salt) were continuously administered, respectively. The solvent control group was administered solvent. The administration volume was 5 ml/kg and the period was 2 weeks.

CCOc1nc2cccc(C(=O)OCc3oc(=O)oc3C)c2n1Cc1ccc(-c2ccccc2-c2noc(=O)[nH]2)cc1 [Azilsartan kamedoxomil, Azilsartan medoxomil potassium salt, reference compound]
Clinical observations (Beagle dog; 1.42 g·kg^−1 dosage group): vomit, less moving; moving reduction on day 2 after administration, moving recovered on day 3 and no abnormality observed after day 3
Clinical observations (Beagle dog; 2.13 g·kg^−1 dosage group): vomit, drooling, moving reduction; moving reduction on day 2 after administration, moving recovered on day 3 and no abnormality observed after day 3
Clinical observations (Beagle dog; 3.20 g·kg^−1 dosage group): vomit, drooling, less moving; moving reduction on days 2˜8, prostration on days 5˜8, died on day 9
Body temperature (Beagle dog; dog, in vivo): no abnormality on day 7 after administration
Body weight (Beagle dog; dog, in vivo): decreased on day 7 after administration compared with pre-administration
Electrocardiogram and haematological indicators (Beagle dog; dog, in vivo): not abnormal on day 7 after administration
PT values (Beagle dog; dog, in vivo): reduced significantly after administration compared to pre-administration
Systolic blood pressure and diastolic blood pressure (Beagle dog; dog, in vivo): reduced more or less on day 2 after administration

CCOc1nc2cccc(C(=O)[O-])c2n1Cc1ccc(-c2ccccc2-c2noc(=O)[nH]2)cc1.C[N+](C)(C)CCO [Example 1]
Conclusion (hygroscopic or not) (Hygroscopicity test): Yes
Hygroscopicity (percent of weight increase) (Hygroscopicity test): 10.51%
Solubility, comparison between samples (Solubility test): comparable to the solubility of example 2 compound

CCOc1nc2cccc(C(=O)O)c2n1Cc1ccc(-c2ccccc2-c2noc(=O)[nH]2)cc1.NCCO [Example 3]
Conclusion (hygroscopic or not) (Hygroscopicity test): Yes
Hygroscopicity (percent of weight increase) (Hygroscopicity test): 5.66%

CCOc1nc2cccc(C(=O)O)c2n1Cc1ccc(-c2ccccc2-c2noc(=O)[nH]2)cc1.CCOc1nc2cccc(C(=O)O)c2n1Cc1ccc(-c2ccccc2-c2noc(=O)[nH]2)cc1.NCCO [Example 4]
Antihypertensive effect compared with control (Azilsartan medoxomil potassium salt) ([1]; SHR rats, 2 weeks): superior to the antihypertensive effect of control
Antihypertensive effect, ranking under the same dosage ([1]; SHR rats, 2 weeks): less effective
Effect on blood pressure of SHR rats compared with solvent control ([1]; continuously administered for one or two weeks, FIG. 4): reduce the blood pressure of SHR rats significantly
Hygroscopicity (percent of weight increase) (Hygroscopicity test): 0.08%
Conclusion (hygroscopic or not) (Hygroscopicity test; listed as Example 4 Compound): No
Conclusion (hygroscopic or not) (Hygroscopicity test; listed as example 4 compound): not hygroscopic
